Assay results from patent publication US20260137807A1, “COMPOSITIONS AND METHODS FOR DELIVERING A MACROMOLECULE TO A CELL” (AstraZeneca AB, priority 2022, published 2026).
Entries after “also recorded” stand apart in the source; their conditions may differ.

What was measured:
[1] = test system: HeLa Luc705 cells; assay: Splice switching activity assay (Luc705 luciferase reporter), Example 4A; format: cell-based
Excerpt: (§1) HeLa Luc705 and Huh7 Luc705 cells were used to screen and characterize the SMC generated in Example 2 for their ability to increase levels of an SSO-induced splice variant by co-treatment of the cells with the SSO and SMC. The Luc705 reporter construct was used for quantitation of luciferase protein produced as a result of functional SSO delivery. (Kang et al. (1998) Biochemistry, 37(18):6235-6239; Rocha et al. (2016) Four Novel Splice-Switch Reporter Cell Lines: Distinct Impact of Oligonucleotide Chemistry and Delivery Vector on Biological Activity. Nucleic Acid Ther. 26(6):381). Briefly, a plasmid carrying the luciferase coding sequence interrupted by an insertion of intron 2 from β-globin pre-mRNA carrying a cryptic splice site was stably transfected into cells. Unless the aberrant slice site was masked by an antisense oligonucleotide, the pre-mRNA of luciferase was improperly processed.
(§2) HeLa Luc705 and Huh7 Luc705 cells were seeded in 96-well plates at 10,000 cells per well in growth media containing 1 μM Luc705-SSO and incubated to allow adherence and oligo internalization. After 24 hours, 10 μl of SMC diluted in Growth Media (DMEM+10% FBS) was added into each well. After 2 hours, media was removed from the wells and replaced with fresh growth media for 4 hours to allow for translation of the variant proteins. The media was then removed, and cells were lysed with 0.1% Triton-PBS.
(§3) To detect luciferase activity, 30 μL of cell lysate was transferred to white-walled 96-well plates. Luciferase intensity in each well was measured using a GloMax® 96 Microplate Luminometer machine (Promega) following auto-injection of 25 μL Luciferin substrate (Firefly Luciferase Assay System: Promega) per well. Photon measurements were acquired for 10 seconds, starting 2 seconds after injection.
(§4) To determine whether AZ4800 (Compound 2, FIG. 1B) and SSO must be present in the cell media simultaneously for Compound 2 to produce its synergistic effects, the treatment plan was modified from the UNC2383 treatment plan detailed by Wang et al. (2017) ACS Chem. Biol. 12(8):1999-2007 to include a 24 hour pre-treatment with SSO, followed by the addition of Compound 2 for two hours, followed by the removal of SSO and Compound 2, and finally a 4-hour protein translation period (FIG. 10).

[2] = test system: Huh7 Luc705 cells; assay: as above; format: cell-based
Excerpt: as §1, §2, §3, §4

[3] = Nanoparticle tracking analysis (NTA); format: physicochemical; conditions: 1 μm or 5 μm oligonucleotide incubated with 5 μm AZ4800 for 2 hours
Protocol: Many SSO transfection reagents work through complexation or association with the SSO. A nanoparticle tracking analysis (NTA) was performed to determine whether Compound 2 induced aggregation of oligonucleotides in cell media.
SSO was incubated in cell growth media with and without Compound 2 at 37° C. for 2 hours, mimicking the treatment plan shown in FIG. 10. Analysis was carried out with a Nanosight NS500 instrument running NTA 2.3 analytical software. A script that records 5×30 second videos in light-scatter mode was run with a camera level of 13. Analysis of the videos was then performed with screen gain set to 10 and a detection threshold at 7.

[4] = test system: MALAT1 mRNA; assay: MALAT1 knockdown by gapmer, real-time PCR; format: cell-based, mouse; conditions: 2 μM AZ3327 with 2 μM gapmer, N2A cells, FIG. 28
Protocol: N2A cells were cultured in Dulbecco's modified eagle medium (Gibco, 31,966) containing 10% fetal bovine serum (Gibco, 10,270) and were maintained at 37° C. in a humidified atmosphere containing 5% CO2, 21% O2.
For knockdown analysis of the gapmers, 24-well plates 50,000 N2A cells in 500 μL total volume of media per well. Twenty-four hours later, the cells were treated with 2 μM MALAT1-targeting gapmer oligonucleotide having the sequence GM5CAttm5ctaatagm5cAGM5C, where m5c is 5-methylcytidine and capital letters are LNA nucleosides (SEQ ID NO:4) (Oligo Only), 2 μM MALA T1-targeting gapmer oligonucleotide and simultaneously 2 μM AZ3327 (2 μM AZ3327), or Lipofectamine-complexed MALAT1 Oligonucleotide at 200 nM (LF2000). All treatments were performed in biological triplicates. […] RNA concentration was measured via Nanodrop and cDNA was synthesized with High Capacity cDNA Reverse Transcription kit as per manufacturer's instructions (ThermoFisher Scientific, 4368814).
Real-time PCR reactions were run on QuantStudio 7 Flex Real-Time PCR System (Applied Biosystems) using MALAT1 TaqMan assays (mouse Mm01227912, Applied Biosystems) following the manufacturer's instructions. […] The absolute mRNA expression levels for MALAT1 were calculated by linear regression fitting the PCR product to a standard curve. […]

[5] = test system: T-47D cells; assay: Co-delivery of Cre recombinase, in vitro editing GFP reporter; format: cell-based; conditions: for editing: 50 nM Cre
Excerpt: Cre recombinase was co-administered with Compound 4 to assess improvement in editing efficiency in an in vitro reporter system in which edited cells express GFP. Total cell counts are shown as unfilled bars (FIG. 43A, left panel); viable cells are shown in light gray shaded bars (FIG. 43A, middle panel); edited cell counts are shown in green shaded bars, and edited cell percentage is shown as the dotted line (FIG. 43A, right panel).
The media change increased cell viability, as shown by the difference between the left and right panels of FIGS. 43B and 43C. […] Greater than 80% editing was observed when Cre protein was co-administered with 2 μM or 3 μM Compound 4 in the media changed condition, and 3 μM Compound 4 in the media unchanged condition.

COc1nn(C2CCNCC2)cc1Nc1ncc(Cl)c(-n2ccc3c(C#N)cccc32)n1 [Compound 2]
increase in SSO activity ([1]; 1 μM SSO, 10, 5 or 1 μM compound for 2 hours, FIG. 2A): substantially higher increase in SSO activity than UNC2383
increase in functional SSO activity ([1]; 5 μM compound, 1 μM SSO or 100 nM SSO, FIG. 2B): increase in activity
SSO activity, preload only ([1]; SSO only pre-treated, removed when compound added, FIG. 11A): no activity was seen
increase in SSO activity with lengthened pre-treatment ([1]; SSO pre-treatment 48 hours instead of 24, FIG. 12A): more pronounced
increase in SSO activity ([1]; co-treatment up to 5 μM, plateauing after 2 hours, FIG. 11C): 100 fold
SSO activity without the pre-treating step ([1]; no pre-load, FIG. 13A): significant activity was observed
increase in SSO activity with lengthened pre-treatment ([2]; SSO pre-treatment 48 hours instead of 24, FIG. 12B): more pronounced
SSO activity without the pre-treating step ([2]; no pre-load, FIG. 13B): significant activity was observed
particle size profile of oligonucleotide in cell growth media [3]: No significant differences in particle size; also recorded: no significant changes in particle size profile

COc1nn(C2CCNCC2)cc1Nc1ncc(F)c(-n2ccc3c(C#N)cccc32)n1 [Compound 4]
knockdown of MALAT1 mRNA expression as compared to oligo alone [4]: enhanced knockdown of MALAT1 mRNA expression
editing efficiency ([5]; 50 nM Cre protein, 0, 1, 2 or 3 μM compound, FIG. 43B): improved editing efficiency in T-47D cells in a dose-dependent manner
editing ([5]; 2 μM compound, media changed after 2 hours): Greater than 80%
editing ([5]; 3 μM compound, media changed after 2 hours): Greater than 80%
editing ([5]; 3 μM compound, media unchanged): Greater than 80%
